Test results as given in patent US20020098477A1, “METHODS FOR SCREENING NUCLEAR TRANSCRIPTION FACTORS FOR THE ABILITY TO MODULATE AN ESTROGEN RESPONSE” (priority 1997, published 2002).

Assays:
AP-1 response element = test: Coll73-LUC collagenase reporter gene assay in HeLa cells transfected with ER and GR; assay type: cell-based, human; details: for AP-1 activation at dose used: TNF-α 10 ng/ml, data not shown
Description: Coll73-LUC and Coll60-CAT have been previously described (Webb et al. (1995) Mol. Endo., 9: 443-456; Lopez et al. (1993) Mol. Cell Biol., 13: 3042-3049). Coll73-LUC consists of −73 to +63 base pairs of the collagenase promoter upstream of the Luciferase reporter gene. Coll517-CAT and Coll517mAP-1-CAT each contain −517 to +63 of the collagenase promoter (Webb et al. (1995) Mol. Endo., 9: 443-456).
Coll517mAP-1-CAT contains three point mutations in the consensus AP-1 response element (TGAGTCA mutated to GTACTCA). ColALuc contains the collagenase AP-1 response element upstream of the minimal drosophila alcohol dehydrogenase promoter (Starr et al., (1996) Genes & Dev., 10: 1271-1283). The ER expression vectors have been previously described: PHE0 (Green et al. (1986) Nature, 320: 134-139), PHEG0 (Tora et al. (1989) EMBO J. 8: 1981-1986), HE11 (Kumar et al. (1986) EMBO J., 5: 2231-2236), and HE15 (Kumar et al. (1987) Cell, 51: 941-951). PHE0 contains a point mutation (Gly400Val). PHEG0 is the wild type ER. PHE0 has reduced affinity for estrogens which allows for studies in cell culture without inadvertent activation. The protein coding regions of the ER plasmids were cloned into the multiple cloning site of the pSG5 expression vector. pRSVhGR (McEwan et al. (1993) Mol. Cell. Biol., 13: 399-407) consists of a cDNA encoding the human GR coding region inserted into an expression vector driven by the Rous sarcoma virus promoter. The PR-A (PhPR-60) and PR-B (hPR65) plasmids were derived from T47D cDNA and genomic DNA (Law et al (1987) Proc. Natl. Acad. Sci., USA, 84: 2877-2881; Wei et al. (1988) Mol. Endo., 2: 62-72) and cloned into an expression vector derived from pLEN (Kushner et al. (1990) Mol. Endocrinol. 4: 1465-1473). The human c-Jun (Turner et al. (1989) Science, 243: 1689-1694)) and rat c-Fos (Cohen et al. (1989) Genes & Dev., 3: 173-184)), have been previously described. The beta-actin-hCG construct has been previously described (Lopez et al. (1993) Mol. Cell. Biol., 13: 3042-3049). The pJ3-LacZ plasmid is pBR322-based and contains an SV40 promoter which activates LacZ.
All cells were maintained in DME medium without phenol red. […]
(§1) Cells were transfected by electroporation as previously described (Webb et al. (1995) Mol. Endo., 9: 443-456). […] The efficiency of transfection was monitored by co-transfection with either a (hCG reporter driven by an actin promoter (Lopez et al. (1993) Mol. Cell. Biol., 13: 3042-3049) or by co-transfection with pJ3LACZ. CAT or luciferase activity was then corrected by dividing by hCG levels or β-galactosidase activity. Five micrograms of collagenase reporter plasmid, and 1 μg of GR expression vector were used in all experiments unless otherwise indicated. […]

PR-A [1] = test: ColALuc reporter assay in CV-1 cells transfected with ER, PR-A and c-Jun; assay type: cell-based, monkey
Description: (§2) (FIG. 8A) HeLa cells were transfected with ColALuc (5 μg), ER (1 μg), PR-A or PR-B (1 μg), and c-Jun (3 μg). Data are from four separate transfections from three experiments for PR-A and from two transfections from two experiments for PR-B. Columns represent the average fold induction. (FIG. 8B) CV-1 cells were transfected with ColALuc (5 μg), ER (HE0, 0.5 μg), PR-A (1 μg) and c-Jun (3 μg). Data is from one experiment. Columns represent the average of two treatment points. Similar experiments have been repeated 3 times or less. (FIGS. 8A and 8B) Cells were treated with steroids immediately after transfection and harvested 40 hrs later. Error bars represent standard deviation.
(§3) Coll517mAP-1-CAT contains three point mutations in the consensus AP-1 response element (TGAGTCA mutated to GTACTCA). […]
as §1

PR-A [2] = details: HeLa, 10^−7 M
Description: (FIG. 8A) HeLa cells were transfected with ColALuc (5 μg), ER (1 μg), PR-A or PR-B (1 μg), and c-Jun (3 μg). Data are from four separate transfections from three experiments for PR-A and from two transfections from two experiments for PR-B. Columns represent the average fold induction. […] Similar experiments have been repeated 3 times or less. (FIGS. 8A and 8B) Cells were treated with steroids immediately after transfection and harvested 40 hrs later. Error bars represent standard deviation.
All cells were maintained in DME medium without phenol red. The medium was supplemented by serum (Sigma) which was tested for low estrogenic activity prior to use. […] In these experiments cells were treated with media containing charcoal-treated serum the night prior to transfection.

PR-B = test: ColALuc reporter assay in HeLa cells transfected with ER, PR-B and c-Jun; assay type: cell-based, human
Description: as §2, §3, §1

CC/C(=C(\c1ccccc1)c1ccc(OCCN(C)C)cc1)c1ccccc1 [tamoxifen]
tamoxifen effect on transcription at Coll73 (AP-1 response element; tamoxifen 5×10^−6 M, HE0, GR 1 μg): activation

TNF-α
AP-1 activation at dose used (AP-1 response element; PMA 10^−7 M): maximal AP-1 activation

CCCCCCCCCCCCCC(=O)O[C@@H]1[C@@H](C)[C@@]2(O)[C@@H](C=C(CO)C[C@]3(O)C(=O)C(C)=C[C@@H]23)[C@@H]2C(C)(C)[C@]12OC(C)=O [PMA]
AP-1 activation at dose used (AP-1 response element; PMA 10^−7 M): maximal AP-1 activation | transcriptional activity in the absence of steroids (AP-1 response element; PMA 10^−7 M, ER 5 μg, GR 1 μg): ten fold stimulation

CCC(=O)[C@@]1(C)CC[C@H]2[C@@H]3CCC4=CC(=O)CCC4=C3CC[C@@]21C [R5020]
progestin inhibition of estradiol with increased amounts of c-Jun (PR-A [1]; CV-1, PR-A, increasing c-Jun): maintained | effect on the estradiol response (PR-A [1]; CV-1, transfected PR-A): inhibited the estradiol response | activity of AP-1 site, single steroid (PR-A [2]): inhibited the basal activity | activity of AP-1 site, single steroid (PR-B; 10^−7 M): inhibited the basal activity | progestin inhibition on treatment with both steroids (PR-B; estradiol + progestin): loss of RU5020 inhibition
